From US12606540B2, “Triazolone compound” (MEDSHINE DISCOVERY INC., priority 2020, dated 2026)
pIC50: −log10 of the molar value.

Molecular target: DHODH enzyme (Homo sapiens, UniProt Q02127)
Assay: DHODH enzyme inhibitory activity in vitro (resazurin fluorescence)
Assay type: biochemical
Settings: 5 nM DHODH, 15 μM L-DHO, 80 μM Resazurin
From the text: The DHODH inhibitory activity of the compounds was detected by the following experimental method, and the experimental results are as shown in Table 1.
DHODH uses flavin mononucleotide FMN to catalyze the oxidation of dihydrooratic acid DHO to produce oratic acid, while the re-oxidation of FMN requires the participation of coenzyme CoQ. In the experiment of detecting the DHODH enzyme activity, CoQ was replaced by Resazurin dye as the final electron acceptor in the enzyme activity reaction. Resazurin solution is blue, and the resorufin generated after reduction has red fluorescence, and the fluorescence signal can be detected under the 535 nm of excitation wavelength and the 590 nm of emission wavelength. The components of the reaction buffer used in the experiment were 100 mM Hepes pH 7.0, 150 mM NaCl, 0.3% CHAPS, 0.5 mg/mL BSA, 0.1 μM FMN and 1% DMSO. The final concentration of DHODH enzyme in the reaction system was 5 nM, and the final concentration of substrate L-DHO was 15 μM, the final concentration of indicator Resazurin was 80 μM. The components of the reaction stop buffer were 100 mM Hepes pH 7.0 and 5 mM Orotate. The specific method was as follows: 2-fold final concentration of the DHODH enzyme solution was mixed with the compound, incubated at room temperature for 20 min, 2-fold final concentration of the substrate mixture solution of L-DHO and resazurin was added and reacted, incubated at room temperature away from light for 45 min. Then the reaction was stopped by adding 2-fold final concentration of the reaction stop buffer to the reaction system, and incubated at room temperature for 10 min, the fluorescence signal of the reaction system was detected with EnVision under the condition of Ex/Em=535/590 nm.

Chain of DHODH enzyme (Q02127 whole entry): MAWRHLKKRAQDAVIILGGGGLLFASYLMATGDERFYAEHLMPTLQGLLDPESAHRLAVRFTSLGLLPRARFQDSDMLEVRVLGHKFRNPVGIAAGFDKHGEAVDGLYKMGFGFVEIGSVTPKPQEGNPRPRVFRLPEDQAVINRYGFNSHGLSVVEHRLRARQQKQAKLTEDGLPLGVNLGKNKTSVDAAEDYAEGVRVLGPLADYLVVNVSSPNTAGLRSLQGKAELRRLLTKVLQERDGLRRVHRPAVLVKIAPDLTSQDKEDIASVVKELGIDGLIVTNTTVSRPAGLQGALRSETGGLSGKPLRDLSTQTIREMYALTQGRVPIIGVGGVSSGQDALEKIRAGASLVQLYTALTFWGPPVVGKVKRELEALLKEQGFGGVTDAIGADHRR

## CCn1c(CO)nn(-c2cc(O[C@@H](C)C(F)(F)F)c(/C(F)=C/c3ncccc3Cl)cc2F)c1=O [Compound 5]
  pIC50: 8.46
